Test results published in patent US20030211605A1, “Derivation of midbrain dopaminergic neurons from embryonic stem cells” (priority 2003, published 2003).

Key:
Type in all cases: cell-based, mouse
[1] = system: ES-derived neuron; assay: Patch clamp recording of synaptic activity of differentiated ES-derived neurons; settings: 10 mM, pressure application; 13 days of differentiation; FIG. 9B/9C
[2] = system: ES cells; assay: Yield of TH+ neurons (TH/TUJ1 immunocytochemistry) in differentiated ES cell cultures; settings: SHH 500 ng/ml, FGF8 100 ng/ml, cAMP 1 mM, ascorbic acid 200 μM, added at different stages; FIG. 4
Method: Specifically, the cells were dissociated by adding a solution of 0.05% typsin and 0.04% EDTA to the plates and incubating at 37° C. for 5 minutes. The dissociated cells were plated on tissue culture plastic or glass coverslips at a concentration of 1.5-2×10^6 cm^2 in serum free N2 medium supplemented with 1 μg/ml of laminin and 10 ng/ml of basic fibroblast growth factor (bFGF, R&D Systems, Minneapolis, Minn.). The medium was also supplemented with murine aminoterminal fragment SHH (500 ng/ml); murine FGF8 isoform b (100 ng/ml, both from R& D System); and ascorbic acid (200 μM, Sigma). Control cultures were treated identically except that no SHH or FGF8 was applied during cell proliferation.
Differentiation (stage 5) was induced using a modification of Okabe et al., using N2 medium instead of N3FL medium. […]
Uniform random sampling procedure were used for cell counts and quantified using the fractionator technique (Gundersen et al., (1988) “Some new, simple and efficient stereological methods and their use in pathological research and diagnosis,” APIMS 96:379-394). […] Data expressed as mean±SEM.
Yield of TH+ neurons is expressed as a percentage of all TUJ1+ neurons.

[3] = system: ES cells; assay: Comparison of N2 and N3FL media: total, TUJ1+ and TH+ cells after differentiation; settings: for phenotype of the ES cell derived population: variation of concentration in the medium

Compound	response to application to the dendrites of a differentiated neuron [1]	phenotype of the ES cell derived population [3]	other results
NCCCC(=O)O [GABA, gamma amino butyric acid]	inward current	–	–
O=C1O[C@H]([C@@H](O)CO)C(O)=C1O [ascorbic acid]	–	–	yield of TH+ neurons (percentage of all TUJ1+ neurons) [2]: increase the yield of TH+ neurons
O=S(=O)(O)CCN1CCN(CCO)CC1 [HEPES, 4-(2-hydroxyethyl)-1-piperazine-ethanesulfonic acid]	–	–	percentage of TUJ1 and TH+ cells ([3]; substitution of bicarbonate (N2) by HEPES (N3FL), FIG. 8): dramatically reduced
transferrin	–	did not significantly affect	–
NC(=O)CC[C@H](N)C(=O)O [glutamine]	–	did not significantly affect	–
N[C@@H](CCC(=O)O)C(=O)O [glutamate]	inward current	–	–
